Laboratory results: US9932637B2, “Genetic polymorphisms associated with cardiovascular disorders and drug response, methods of detection and uses thereof” (CELERA CORPORATION, priority 2003, dated 2018)
Several values for one entry are separate records, joined by “and”; a condition that tells them apart may be missing. Identical values can stand only once.

System: patients with prior myocardial infarction (CARE study)
Assay: CARE aligned analysis (prospective and case/control design, white males): association of genotypes with pravastatin efficacy (Tables 13, 15)
Format: in vivo, human
Settings: for Pravastatin Patients n/total: WM
Method: The data presented in Table 8 based on an association of genotypes with pravastatin efficacy of the CARE samples were further analyzed and presented in Table 13. The further analysis was performed to align the data obtained from the analysis of the CARE samples, which was a prospective study, to the analysis of the WOSCOP samples, which was a case/control study. Table 13 also presents an analysis of the association of genotypes with pravastatin efficacy in the WOSCOPs samples. Relative to the analysis performed on the data presented in Table 8, there are two significant differences to determine if the SNP influenced pravastatin efficacy. Data obtained from the CARE samples were separated by study design into two groups, those in the prospective study design group and those in the case/control study design group. The original care study contained 16 protocol defined cardiovascular disease defined endpoints and 150 other phenotypes. […] The control groups used to compare the data were also divided into two groups, the “all possible” control group and the “cleaner” control group. […] Because the participants in the WOSCOPs trial were all white males, only data obtained from white males in the CARE study were analysed. Data from the “all possible” and “cleaner” controls were compared to data obtained from the cases in the prospective study design while only data from “cleaner” controls were compared to cases in the case/control study design. The data from the case/control cohorts were analysed using conditional logistic regression (as opposed to logistic regression used for the original anaylsis).
The anaylsis was refined as described for both Tables 13 and 14.

[1] = PRKCQ hCV15954277, CARE, Case/Control, F MI/SD/NF MI
[2] = PRKCQ hCV15954277, CARE, Prospective, F MI/SD/NF MI
[3] = SERPINA5 hCV9596963, CARE Case/Control, F MI/SD/NF MI
[4] = SN hCV25623265, CARE Case/Control, F MI/SD/NF MI
[5] = SN hCV25623265, CARE Prospective, F MI/SD/NF MI
[6] = TAP1 hCV549926, CARE Case/Control, F MI/SD/NF MI
[7] = TAP1 hCV549926, CARE Prospective, F MI/SD/NF MI
[8] = TIMP2 hCV25629888, CARE Case/Control, F MI/SD/NF MI
[9] = TNF hCV7514879, CARE Case/Control, F MI/SD/NF MI
[10] = TNF hCV7514879, CARE Prospective, F MI/SD/NF MI
[11] = VTN hCV2536595, CARE Case/Control, F MI/SD/NF MI
[12] = VTN hCV2536595, CARE Prospective, F MI/SD/NF MI

For `CC[C@H](C)C(=O)O[C@H]1C[C@H](O)C=C2C=C[C@H](C)[C@H](CC[C@@H](O)C[C@@H](O)CC(=O)O)[C@H]21` [pravastatin], which “n/total (%) cases, Pravastatin Patients, 2 Rare Alleles” value (PON1 hCV2548962, 2 rare alleles, CARE Prospective, Total CHD Events, All Possible controls, White Males) is on record?
The value was 18/107 (16.8%).

What about the “Pravastatin Patients n/total” value (PPOX hCV25922816, 0 Rare Alleles, CARE Prospective, F&NF MI, Cleaner controls) of the same molecule?
The value was 116/721.

What about the “Pravastatin Patients n/total” value (PPOX hCV25922816, 1 Rare Allele, CARE Case/Control, F&NF MI, All Possible controls) of the same molecule?
Its value is 10/164.

What about the “Pravastatin Patients n/total” value (PPOX hCV25922816, 1 Rare Allele, CARE Prospective, F&NF MI, All Possible controls) of the same molecule?
Its value is 10/169.

And the “Pravastatin Patients n/total” value (PPOX hCV25922816, 1 Rare Allele, CARE Prospective, F&NF MI, Cleaner controls)?
The value was 10/113.

And the “2 Rare Alleles (%), Pravastatin Patients” value (PPOX hCV25922816, CARE Case/Control, F&NF MI)?
The value was “(16.7%)”.

And the “2 Rare Alleles (%), Pravastatin Patients” value (PPOX hCV25922816, CARE Prospective, F&NF MI)?
Its value is “(16.7%)”.

What about the “2 rare alleles n/total (%), pravastatin patients” value [1] of the same molecule?
The value was “(11.2%)”.

And the “Pravastatin vs placebo odds ratio, 0 rare alleles” value [1]?
The value was 0.58.

What about the “Pravastatin vs placebo odds ratio, 1 rare allele” value [1] of the same molecule?
Its value is 1.04.

And the “Pravastatin vs placebo odds ratio, 2 rare alleles” value [1]?
The value was 3.15.

And the “Pravastatin vs placebo odds ratio, 0 rare alleles” value [2]?
Its value is 0.57 and 0.56.

And the “Pravastatin vs placebo odds ratio, 1 rare allele” value [2]?
Its value is 1.08 and 0.85.

And the “Pravastatin vs placebo odds ratio, 2 rare alleles” value [2]?
Its value is 3.38 and 2.80.

And the “2 Rare Alleles (%), Pravastatin Patients” value (SELL hCV16172571, CARE Case/Control, F&NF MI)?
The value was “(14.3%)”.

What about the “2 Rare Alleles (%), Pravastatin Patients” value (SELL hCV16172571, CARE Prospective, F&NF MI) of the same molecule?
The value was “(12.9%)”.

What about the “2 Rare Alleles (%), Pravastatin Patients” value (SELL hCV25474627, CARE Case/Control, F&NF MI) of the same molecule?
The value was “(14.8%)”.

And the “2 Rare Alleles (%), Pravastatin Patients” value (SELL hCV25474627, CARE Prospective, F&NF MI)?
The value was “(13.3%)”.

And the “2 Rare Alleles (%), Pravastatin Patients” value (SERPINA1 hCV25640504, CARE Case/Control, F&NF MI)?
The value was “(8.6%)”.

What about the “2 Rare Alleles (%), Pravastatin Patients” value (SERPINA1 hCV25640504, CARE Prospective, F&NF MI) of the same molecule?
The value was “(8.4%)”.

And the “2 Rare Alleles (%), Pravastatin Patients” value [3]?
The value was “(15.1%)”.

What about the “2 Rare Alleles n/total, Pravastatin Patients” value [3] of the same molecule?
Its value is 21/139.

What about the “Pravastatin vs placebo odds ratio, 0 rare alleles” value [3] of the same molecule?
The value was 0.89.

What about the “Pravastatin vs placebo odds ratio, 1 rare allele” value [3] of the same molecule?
Its value is 0.57.

What about the “Pravastatin vs placebo odds ratio, 2 rare alleles” value [3] of the same molecule?
The value was 1.72.

What about the “2 Rare Alleles (%), Pravastatin Patients” value (SERPINI2 hCV370782, CARE Case/Control, F&NF MI) of the same molecule?
Its value is “(16.2%)”.

And the “2 Rare Alleles (%), Pravastatin Patients” value (SERPINI2 hCV370782, CARE Prospective, F&NF MI)?
The value was “(15.8%)”.

What about the “2 Rare Alleles (%), Pravastatin Patients” value [4] of the same molecule?
The value was “(7.5%)”.

What about the “2 Rare Alleles n/total, Pravastatin Patients” value [4] of the same molecule?
The value was 13/173.

And the “Pravastatin vs placebo odds ratio, 0 rare alleles” value [4]?
Its value is 0.71.

And the “Pravastatin vs placebo odds ratio, 1 rare allele” value [4]?
Its value is 1.02.

And the “Pravastatin vs placebo odds ratio, 2 rare alleles” value [4]?
The value was 0.30.

And the “2 Rare Alleles (%), Pravastatin Patients” value [5]?
Its value is “(7.5%)”.

What about the “2 Rare Alleles n/total, Pravastatin Patients” value [5] of the same molecule?
Its value is 13/174.

What about the “Pravastatin vs placebo odds ratio, 0 rare alleles” value [5] of the same molecule?
The value was 0.72.

What about the “Pravastatin vs placebo odds ratio, 1 rare allele” value [5] of the same molecule?
The value was 0.98.

What about the “Pravastatin vs placebo odds ratio, 2 rare alleles” value [5] of the same molecule?
Its value is 0.31.

And the “2 Rare Alleles n/total, Pravastatin Patients” value [6]?
Its value is 1/36 and 1/25.

What about the “Pravastatin vs placebo odds ratio, 0 rare alleles” value [6] of the same molecule?
Its value is 0.98 and 0.89.

What about the “Pravastatin vs placebo odds ratio, 1 rare allele” value [6] of the same molecule?
The value was 0.61 and 0.56.

What about the “Pravastatin vs placebo odds ratio, 2 rare alleles” value [6] of the same molecule?
Its value is 0.08.

And the “2 Rare Alleles n/total, Pravastatin Patients” value [7]?
The value was 1/36 and 1/25.

And the “Pravastatin vs placebo odds ratio, 0 rare alleles” value [7]?
The value was 1.00 and 0.88.

What about the “Pravastatin vs placebo odds ratio, 1 rare allele” value [7] of the same molecule?
Its value is 0.60 and 0.55.

What about the “Pravastatin vs placebo odds ratio, 2 rare alleles” value [7] of the same molecule?
Its value is 0.09 and 0.08.

And the “2 Rare Alleles (%), Pravastatin Patients” value [8]?
Its value is “(29.2%)”.

And the “2 Rare Alleles n/total, Pravastatin Patients” value [8]?
Its value is 7/24.

What about the “Pravastatin vs placebo odds ratio, 0 rare alleles” value [8] of the same molecule?
The value was 0.76.

And the “Pravastatin vs placebo odds ratio, 1 rare allele” value [8]?
The value was 0.56.

What about the “Pravastatin vs placebo odds ratio, 2 rare alleles” value [8] of the same molecule?
Its value is 6.81.

And the “2 Rare Alleles (%), Pravastatin Patients” value [9]?
Its value is “(8.8%)”.

And the “2 Rare Alleles n/total, Pravastatin Patients” value [9]?
The value was 3/34.

And the “Pravastatin vs placebo odds ratio, 0 rare alleles” value [9]?
The value was 0.87.

And the “Pravastatin vs placebo odds ratio, 1 rare allele” value [9]?
Its value is 0.52.

And the “Pravastatin vs placebo odds ratio, 2 rare alleles” value [9]?
The value was 0.14.

What about the “2 Rare Alleles (%), Pravastatin Patients” value (TNF hCV7514879, CARE Case/Control, F&NF MI) of the same molecule?
Its value is “(8.8%)”.

And the “2 Rare Alleles (%), Pravastatin Patients” value [10]?
Its value is “(8.6%)”.

What about the “2 Rare Alleles n/total, Pravastatin Patients” value [10] of the same molecule?
The value was 3/35.

And the “Pravastatin vs placebo odds ratio, 0 rare alleles” value [10]?
The value was 0.88.

What about the “Pravastatin vs placebo odds ratio, 1 rare allele” value [10] of the same molecule?
Its value is 0.50.

And the “Pravastatin vs placebo odds ratio, 2 rare alleles” value [10]?
Its value is 0.12.

And the “2 Rare Alleles (%), Pravastatin Patients” value (TNF hCV7514879, CARE Prospective, F&NF MI)?
The value was “(8.6%)”.

What about the “2 Rare Alleles n/total, Pravastatin Patients” value [11] of the same molecule?
The value was 21/260 and 21/168.

And the “Pravastatin vs placebo odds ratio, 0 rare alleles” value [11]?
The value was 1.51 and 1.37.

And the “Pravastatin vs placebo odds ratio, 1 rare allele” value [11]?
Its value is 0.63 and 0.56.

And the “Pravastatin vs placebo odds ratio, 2 rare alleles” value [11]?
Its value is 0.66 and 0.64.

And the “2 Rare Alleles (%), Pravastatin Patients” value [12]?
Its value is “(7.9%)”.

What about the “2 Rare Alleles n/total, Pravastatin Patients” value [12] of the same molecule?
Its value is 21/266 and 21/174.

And the “Pravastatin vs placebo odds ratio, 0 rare alleles” value [12]?
The value was 1.54 and 1.31.

What about the “Pravastatin vs placebo odds ratio, 1 rare allele” value [12] of the same molecule?
The value was 0.65 and 0.58.

What about the “Pravastatin vs placebo odds ratio, 2 rare alleles” value [12] of the same molecule?
The value was 0.63 and 0.61.
